In ChEMBL document CHEMBL1201862, “PubChem BioAssay data set” (2004):
Active and inactive are the calls of the source.

How the values were obtained:
[1] = molecular target: Voltage-dependent T-type calcium channel subunit alpha-1H (Homo sapiens, UniProt O95180); type: functional;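 further: channel activity triggered by adding a high calcium stimulation buffer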
[2] = NIH-3T3 fibroblast cytotoxicity, dose response, cytotoxicity control, cell-based, fluorescence, Alamar Blue, secondary assay (AID 2327); type: functional;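 further: NIH-3T3 mouse fibroblasts cultured with fluconazole at 8 µg/mL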
Aminopeptidase N = molecular target: T1, Aminopeptidase N (Plasmodium falciparum FcB1/Columbia, UniProt O96935); test: malaria alanyl aminopeptidase activity blockers – biochemical, fluorogenic H-Leu-NHMec substrate, 1536-well (AID 1445); set-up: species or system Plasmodium falciparum 3D7, 3D7
T1 sequence (O96935 whole entry): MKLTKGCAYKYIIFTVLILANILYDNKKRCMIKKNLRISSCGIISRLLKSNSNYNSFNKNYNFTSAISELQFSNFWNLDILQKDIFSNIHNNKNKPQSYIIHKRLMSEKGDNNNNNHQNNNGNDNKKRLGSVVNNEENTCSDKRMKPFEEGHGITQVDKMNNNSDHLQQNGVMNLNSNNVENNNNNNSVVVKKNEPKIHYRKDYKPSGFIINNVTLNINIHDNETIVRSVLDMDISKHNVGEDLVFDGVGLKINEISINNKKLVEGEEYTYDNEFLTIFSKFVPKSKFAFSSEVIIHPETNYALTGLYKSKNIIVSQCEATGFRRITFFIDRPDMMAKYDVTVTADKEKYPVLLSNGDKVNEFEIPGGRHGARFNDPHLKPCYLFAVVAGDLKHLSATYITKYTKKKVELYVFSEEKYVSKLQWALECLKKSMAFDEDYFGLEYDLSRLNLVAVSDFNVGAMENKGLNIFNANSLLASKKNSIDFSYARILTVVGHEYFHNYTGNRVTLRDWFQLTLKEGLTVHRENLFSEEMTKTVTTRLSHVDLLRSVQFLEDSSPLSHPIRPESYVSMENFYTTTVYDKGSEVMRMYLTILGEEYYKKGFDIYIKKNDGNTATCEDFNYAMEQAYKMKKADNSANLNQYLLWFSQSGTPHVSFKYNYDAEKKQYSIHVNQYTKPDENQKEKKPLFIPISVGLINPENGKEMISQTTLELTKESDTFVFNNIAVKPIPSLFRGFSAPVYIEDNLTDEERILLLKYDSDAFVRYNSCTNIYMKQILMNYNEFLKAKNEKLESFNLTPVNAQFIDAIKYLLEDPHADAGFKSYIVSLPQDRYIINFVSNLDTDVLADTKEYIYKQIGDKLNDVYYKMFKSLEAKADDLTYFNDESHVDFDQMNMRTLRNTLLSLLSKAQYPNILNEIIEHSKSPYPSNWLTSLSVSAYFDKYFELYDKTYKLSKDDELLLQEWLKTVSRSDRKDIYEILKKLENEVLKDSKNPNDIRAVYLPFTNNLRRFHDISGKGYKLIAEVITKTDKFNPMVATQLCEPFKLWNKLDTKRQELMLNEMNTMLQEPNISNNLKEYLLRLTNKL

[3] = fluconazole-exposed Candida albicans growth modulators – fluorescence, retest, confirmation (AID 2467); type: functional, cell-based
[4] = reduction of Shn3 3'UTR-driven luciferase in osteoblasts – cell-based, Clone20 osteoblasts, firefly luciferase, cherry-picked, dose response (AID 624132); type: functional;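 further: firefly luciferase luminescence from reporter carrying the Shn3 3'UTR in osteoblasts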
[5] = loss of viability in HepG2 cells – cell-based, CellTiter-Glo, cherry-picked, cytotoxicity control for Shn3 inhibitor project, dose response (AID 624134); type: functional
[6] = non-specific 3'UTR reporter inhibition in Clone20-Shn3RL – cell-based, Renilla luciferase, cherry-picked, counter-screen for Shn3 inhibitor project, dose response (AID 624133); type: functional
[7] = viability of uninfected HEp-2 cells – cell-based, HTS, cytotoxicity control for RSV inhibitor project, dose response (AID 2410); type: functional; conditions: human respiratory syncytial virus
[8] = molecular target: T2, High affinity choline transporter 1 (Homo sapiens, UniProt Q9GZV3); test: human choline transporter blockers, potency – cell-based, 5-point CRC, membrane potential dye, dose response (AID 504840); type: functional
T2 sequence (Q9GZV3 whole entry): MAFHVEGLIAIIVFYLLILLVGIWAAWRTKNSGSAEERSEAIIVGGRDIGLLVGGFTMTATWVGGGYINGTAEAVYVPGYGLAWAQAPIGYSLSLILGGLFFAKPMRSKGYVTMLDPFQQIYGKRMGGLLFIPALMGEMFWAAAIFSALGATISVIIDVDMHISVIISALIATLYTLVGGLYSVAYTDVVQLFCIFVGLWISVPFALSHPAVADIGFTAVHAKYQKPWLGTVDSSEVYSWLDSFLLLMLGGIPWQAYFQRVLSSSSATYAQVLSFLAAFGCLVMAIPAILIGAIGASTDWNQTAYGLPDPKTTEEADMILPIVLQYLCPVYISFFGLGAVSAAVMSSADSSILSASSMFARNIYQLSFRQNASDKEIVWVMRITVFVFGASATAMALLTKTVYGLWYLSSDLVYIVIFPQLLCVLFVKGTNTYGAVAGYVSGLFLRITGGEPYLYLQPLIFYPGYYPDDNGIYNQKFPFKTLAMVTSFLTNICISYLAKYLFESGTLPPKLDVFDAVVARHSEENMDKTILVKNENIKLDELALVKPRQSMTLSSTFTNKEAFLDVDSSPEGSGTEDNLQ

[9] = molecular target: T3, Ubiquitin-conjugating enzyme E2 N (Homo sapiens, UniProt P61088); type: functional;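 further: Dose-response confirmation in a TR-FRET assay detecting UBC13-driven polyubiquitin chain formation, inhibition measured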
T3 sequence (P61088 whole entry): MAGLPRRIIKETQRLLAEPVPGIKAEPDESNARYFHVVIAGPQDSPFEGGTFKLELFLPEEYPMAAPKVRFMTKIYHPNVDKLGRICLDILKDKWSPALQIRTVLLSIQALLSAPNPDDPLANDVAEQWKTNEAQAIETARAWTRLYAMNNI

[10] = molecular target: T4, Corticotropin-releasing factor receptor 2/Corticotropin-releasing factor-binding protein (Homo sapiens, UniProt P24387+Q13324); test: Dose Response confirmation of uHTS hits for small molecule antagonists of the CRF-binding protein and CRF-R2 receptor complex.; type: functional; conditions: read-out: IC50_Mean
T4 sequence (Q13324 whole entry): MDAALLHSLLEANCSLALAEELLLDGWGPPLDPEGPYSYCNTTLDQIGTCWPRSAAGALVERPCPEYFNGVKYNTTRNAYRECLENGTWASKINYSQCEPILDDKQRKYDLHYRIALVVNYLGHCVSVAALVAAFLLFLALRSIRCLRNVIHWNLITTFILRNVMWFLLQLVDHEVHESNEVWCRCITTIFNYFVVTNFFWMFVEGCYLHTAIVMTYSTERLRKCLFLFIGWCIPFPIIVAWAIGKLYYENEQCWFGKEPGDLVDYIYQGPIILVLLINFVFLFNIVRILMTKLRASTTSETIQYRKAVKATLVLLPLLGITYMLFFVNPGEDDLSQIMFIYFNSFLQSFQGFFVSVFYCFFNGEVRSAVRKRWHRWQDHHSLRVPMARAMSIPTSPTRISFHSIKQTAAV
T4 sequence (P24387 whole entry): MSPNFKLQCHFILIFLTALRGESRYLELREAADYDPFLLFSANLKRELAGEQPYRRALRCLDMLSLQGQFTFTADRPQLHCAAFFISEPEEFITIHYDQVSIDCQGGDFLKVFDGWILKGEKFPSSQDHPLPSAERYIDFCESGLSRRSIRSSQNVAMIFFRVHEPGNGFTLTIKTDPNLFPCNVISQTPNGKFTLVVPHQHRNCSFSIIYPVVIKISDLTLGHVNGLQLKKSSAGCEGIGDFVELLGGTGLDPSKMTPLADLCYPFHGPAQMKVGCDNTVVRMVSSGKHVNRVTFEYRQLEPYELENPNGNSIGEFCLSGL

[11] = molecular target: T4, Corticotropin-releasing factor receptor 2/Corticotropin-releasing factor-binding protein; test: activators of CRF receptor 2 with binding protein – uHTS hits, confirmation (AID 602473); type: functional; conditions: read-out: EC50_Mean
P388/ADR = test: cells; type: functional; conditions: Mus musculus
SN12K1 = test: cells; type: functional; conditions: Homo sapiens
P388 = test: cells; type: functional; conditions: Mus musculus
[12] = luciferase reporter signal suppression in cells – H4 neuroglioma cells, luminescence, dose response (AID 1990); type: functional, cell-based
[13] = Luminescence Cell-Based Dose Response HTS to Identify Inhibitors of 5'UTR Stem-Loop Driven Prion Protein mRNA Translation in H4 Neuroglioblastoma Cells. [Related pubchem assays: 1827 (Project Summary), 1813 (Primary HTS)]; type: functional
[14] = alpha-synuclein stem-loop luciferase translation blockers – H4 neuroglioma cells, luminescence, confirmation (AID 1988); type: functional, cell-based
[15] = molecular target: T5, Heat shock factor protein 1 (Mus musculus, UniProt P38532); test: enhancement of HSF1-driven luciferase signal – cell-based, NIH3T3, luminescence, dose retest, confirmation (AID 435004); type: functional;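 further: stress induced by proteasome inhibitor MG132 added 30 min after compound; luciferase reporter driven by HSF1 response element in NIH3T3 cells; actives raise luminescence as potentiators of the MG132 stress response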
T5 sequence (P38532 whole entry): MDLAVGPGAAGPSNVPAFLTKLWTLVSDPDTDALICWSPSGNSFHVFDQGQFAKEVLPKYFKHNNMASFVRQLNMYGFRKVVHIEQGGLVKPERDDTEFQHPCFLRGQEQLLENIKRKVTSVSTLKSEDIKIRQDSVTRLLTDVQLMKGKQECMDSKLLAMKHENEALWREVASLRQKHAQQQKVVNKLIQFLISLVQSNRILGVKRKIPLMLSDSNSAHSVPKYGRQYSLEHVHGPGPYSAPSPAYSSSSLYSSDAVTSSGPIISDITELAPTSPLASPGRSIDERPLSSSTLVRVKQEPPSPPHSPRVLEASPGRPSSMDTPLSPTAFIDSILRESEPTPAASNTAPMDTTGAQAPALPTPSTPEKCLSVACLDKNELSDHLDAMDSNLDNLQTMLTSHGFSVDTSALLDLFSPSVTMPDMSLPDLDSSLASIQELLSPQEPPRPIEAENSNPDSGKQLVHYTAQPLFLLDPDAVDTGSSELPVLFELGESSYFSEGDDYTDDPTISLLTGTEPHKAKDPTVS

Sequence of Voltage-dependent T-type calcium channel subunit alpha-1H (O95180 whole entry): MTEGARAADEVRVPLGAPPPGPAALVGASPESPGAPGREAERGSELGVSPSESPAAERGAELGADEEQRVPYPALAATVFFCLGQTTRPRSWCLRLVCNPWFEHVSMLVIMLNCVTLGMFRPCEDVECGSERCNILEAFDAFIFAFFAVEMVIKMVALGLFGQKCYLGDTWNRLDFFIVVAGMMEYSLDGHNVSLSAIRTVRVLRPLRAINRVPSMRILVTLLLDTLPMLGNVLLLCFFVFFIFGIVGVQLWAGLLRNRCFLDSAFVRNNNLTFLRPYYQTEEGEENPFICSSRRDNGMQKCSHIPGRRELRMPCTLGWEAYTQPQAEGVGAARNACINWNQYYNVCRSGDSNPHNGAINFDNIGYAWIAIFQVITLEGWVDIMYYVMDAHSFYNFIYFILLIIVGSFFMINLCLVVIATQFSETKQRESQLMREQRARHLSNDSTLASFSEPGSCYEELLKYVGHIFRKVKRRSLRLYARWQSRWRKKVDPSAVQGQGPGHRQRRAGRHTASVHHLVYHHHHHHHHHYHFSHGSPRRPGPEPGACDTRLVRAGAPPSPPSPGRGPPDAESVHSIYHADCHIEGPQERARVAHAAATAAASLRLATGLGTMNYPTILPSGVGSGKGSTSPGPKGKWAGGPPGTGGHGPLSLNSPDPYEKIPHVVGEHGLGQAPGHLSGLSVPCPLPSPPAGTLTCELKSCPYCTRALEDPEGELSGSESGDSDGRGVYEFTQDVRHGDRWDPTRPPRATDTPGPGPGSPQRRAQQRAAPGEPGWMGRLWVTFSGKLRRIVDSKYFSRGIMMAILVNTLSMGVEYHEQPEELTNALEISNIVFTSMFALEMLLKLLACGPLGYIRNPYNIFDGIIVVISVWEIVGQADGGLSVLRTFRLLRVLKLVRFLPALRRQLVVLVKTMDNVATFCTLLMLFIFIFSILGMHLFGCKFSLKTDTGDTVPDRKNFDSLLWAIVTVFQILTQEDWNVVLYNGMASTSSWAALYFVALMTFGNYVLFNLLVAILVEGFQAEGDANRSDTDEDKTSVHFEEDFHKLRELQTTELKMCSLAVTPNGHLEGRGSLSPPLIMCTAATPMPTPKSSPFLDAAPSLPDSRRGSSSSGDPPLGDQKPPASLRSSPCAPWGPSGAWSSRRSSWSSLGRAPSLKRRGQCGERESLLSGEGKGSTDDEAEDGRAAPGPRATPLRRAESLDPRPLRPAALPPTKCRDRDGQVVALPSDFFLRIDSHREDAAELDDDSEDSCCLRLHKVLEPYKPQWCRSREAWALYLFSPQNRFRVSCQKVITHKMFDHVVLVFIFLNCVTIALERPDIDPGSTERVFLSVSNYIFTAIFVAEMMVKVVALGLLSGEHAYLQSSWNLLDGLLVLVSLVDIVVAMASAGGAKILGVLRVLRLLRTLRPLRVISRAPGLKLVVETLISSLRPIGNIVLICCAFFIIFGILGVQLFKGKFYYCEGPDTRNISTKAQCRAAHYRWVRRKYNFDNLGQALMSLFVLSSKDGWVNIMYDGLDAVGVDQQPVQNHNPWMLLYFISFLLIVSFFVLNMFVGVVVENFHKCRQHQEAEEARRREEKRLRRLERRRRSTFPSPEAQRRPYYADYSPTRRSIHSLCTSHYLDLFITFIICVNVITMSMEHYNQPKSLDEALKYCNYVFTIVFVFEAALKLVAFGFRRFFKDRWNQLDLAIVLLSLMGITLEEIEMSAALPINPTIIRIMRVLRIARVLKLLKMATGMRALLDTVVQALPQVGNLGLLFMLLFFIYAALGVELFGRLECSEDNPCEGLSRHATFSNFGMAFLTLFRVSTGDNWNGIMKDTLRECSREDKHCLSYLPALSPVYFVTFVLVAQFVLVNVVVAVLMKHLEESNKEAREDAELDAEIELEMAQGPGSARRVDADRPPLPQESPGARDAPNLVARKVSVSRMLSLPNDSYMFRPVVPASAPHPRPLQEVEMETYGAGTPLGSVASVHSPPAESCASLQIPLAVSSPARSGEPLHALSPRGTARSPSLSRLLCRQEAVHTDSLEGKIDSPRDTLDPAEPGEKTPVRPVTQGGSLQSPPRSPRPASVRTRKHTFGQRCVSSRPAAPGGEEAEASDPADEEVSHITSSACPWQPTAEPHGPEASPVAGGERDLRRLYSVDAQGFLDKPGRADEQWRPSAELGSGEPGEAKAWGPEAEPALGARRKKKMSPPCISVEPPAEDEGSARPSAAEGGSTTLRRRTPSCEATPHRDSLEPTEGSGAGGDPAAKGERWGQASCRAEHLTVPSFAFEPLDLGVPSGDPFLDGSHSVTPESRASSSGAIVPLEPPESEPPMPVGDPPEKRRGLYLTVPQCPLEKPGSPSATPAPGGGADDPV

O=C1CC(c2nc3ccccc3[nH]2)CN1c1cccc(C(F)(F)F)c1 (stereo not drawn)
EC50 [1]: 8.89 µM (active)

CCN(CC)C(=O)Cn1c(=O)n(-c2ccccc2)c(=O)c2c3c(sc21)CCC3
EC50 [2]: > 160 µM (inactive) | IC50 (Aminopeptidase N): 51.2 µM (active) | EC50 [3]: > 38 µM (not active)

NS(=O)(=O)c1ccc(CCNCc2cc(Br)ccc2OCc2ccccc2)cc1
AC50 [4]: 2.92 µM (active) | AC50 [5]: 53.7 µM (active) | AC50 [6]: 5.96 µM (active)

COc1ccc(OCC(O)CNCCOc2ccccc2OC)c(C(C)(C)C)c1 (stereo not drawn)
CC50 [7]: 14.7 µM (active) | AC50 [4]: 11.6 µM (active) | AC50 [5]: 30.7 µM (active) | AC50 [6]: 19.6 µM (active)

O=C(Cc1c[nH]c2ccccc12)OCCOC(=O)Cc1c[nH]c2ccccc12
EC50 [1]: 4.77 µM (active)

O=C(CSc1nnc(-c2ccncc2)n1Cc1ccco1)c1ccc(Cl)cc1
IC50 [8]: 1.91 µM (active)

CCc1ccc(N(C(=O)c2snc(C(N)=O)c2N)C(C(=O)NCC2CCCO2)c2ccco2)cc1 (stereo not drawn)
IC50 [9]: > 20 µM (inactive)

COC(=O)c1ccccc1NC(=O)c1cccc(NC(=O)c2ccc(Br)o2)c1C
EC50 [1]: 5.7 µM (active)

COc1cccc(-c2csc(N3CCN(C(=O)NC45CC6CC(CC(C6)C4)C5)CC3)n2)c1
EC50 [1]: 5.32 µM (active)

CC(=O)NC(c1ccco1)c1cc(Cl)c2ccccc2c1O (stereo not drawn)
IC50 [9]: > 20 µM (inactive)

Cc1ccc(C)c(NC(=O)C2C(c3ccccc3)C2(Cl)Cl)c1 (stereo not drawn)
EC50 [1]: 0.968 µM (active)

Cc1ccc(-c2nnn(CC(=O)N(c3ccccc3F)C(C(=O)NCC3CCCO3)c3c[nH]c4ccccc34)n2)cc1 (stereo not drawn)
EC50 [1]: 4 µM (active)

CN(C(=S)NC(=O)CCCOc1ccc(Cl)cc1Cl)c1ccccc1
EC50 [1]: 4.13 µM (active)

Cc1ccc(NC(=O)CSc2nccn2Cc2ccccc2)cc1C
EC50 [1]: 2.74 µM (active)

CCc1nn2c(NCCOC)cc(C)nc2c1-c1ccc(F)cc1
IC50 [8]: 14.5 µM (active)

CCCNS(=O)(=O)c1cccc(C(=O)NC2CCCc3ccccc32)c1 (stereo not drawn)
IC50 [8]: 13.5 µM (active) | IC50 [10]: > 47.1 µM (inactive) | EC50 [11]: > 53 µM (inactive)

C=C1CC2(OC1=O)c1ccccc1CCc1ccccc12
AC50 [4]: 1.28 µM (active) | AC50 [5]: 11.4 µM (active) | AC50 [6]: 5.67 µM (active)

CN(CCOc1ccc(Cl)cc1)C(=O)c1cccc(S(=O)(=O)N2CCN(Cc3ccccc3)CC2)c1
AC50 [4]: 2.29 µM (active) | AC50 [5]: > 70 µM (inactive) | AC50 [6]: 3.57 µM (active)

Cc1nc2ccccc2c(=O)n1Nc1ccc(C(=O)O)cc1
GI50 (P388/ADR): > 100 µM (inactive) | GI50 (SN12K1): > 100 µM (inactive) | GI50 (P388): > 100 µM (inactive)

CC(C)CC(/C(O)=C(\C#N)c1nc2ccccc2[nH]1)N1C(=O)c2ccccc2C1=O (stereo not drawn)
CC50 [7]: 21 µM (active) | EC50 [12]: > 120 µM (not active) | EC50 [13]: > 120 µM (not active) | EC50 [14]: 12.3 µM (active) | EC50 [1]: 14.8 µM (active) | EC50 [15]: > 260 µM (inactive)

Cc1ccccc1-n1c(C)cc(/C=N/NC(=O)c2ccc(CN3CCOCC3)cc2)c1C
IC50 [8]: 7.94 µM (active)

CN(C)C1(C/N=C/c2cc(Cl)cc([N+](=O)[O-])c2O)CCCCC1
IC50 [8]: 14.5 µM (active)

CC(C)(C)OC(=O)[C@H](Cc1ccccc1)NC(=O)c1nc[nH]c1C(=O)N[C@@H](CCCCN)C(=O)OC(C)(C)C
IC50 [9]: > 20 µM (inactive)
